Measured values: US3959272A, “Aminoalkyl esters of 2-anilino-nicotinic acids” (Societe Anonyme dite: Hexachime, priority 1972, dated 1976)

How the values were obtained:
[1] = Anti-inflammatory activity: oedema provoked by carragenin in the rat; type: in vivo; details: po, read-out: percentage inhibition of oedema; for inhibition in vivo at 128 mg/kg: 128 mg/kg orally; for inhibition in vivo at 256 mg/kg: 256 mg/kg orally; for inhibition in vivo at 512 mg/kg: 512 mg/kg orally; for inhibition in vivo at 64 mg/kg: 64 mg/kg orally
Method: The method used was as follows.
The anti-inflammatory activity was measured on oedema provoked by carragenin in the rat. Groups of six male rats each weighing 120 to 130 g received the compound under test orally in suspension in "tween 80", half the dose being given 2 hours before and the other half 1/2 hour before the subcutaneous plantar injection of 0.05 ml of a 1 % carragenin solution. The volume of the injected paw was measured by plethysmography at regular intervals. Table 1 below gives the percentage inhibition of the oedema with reference to untreated controls.

[2] = Analgesic activity: Siegmund's test (phenylbenzoquinone painful reactions); type: in vivo; details: Mus musculus, po, read-out: percentage inhibition of reactions; for inhibition in vivo at 64 mg/kg: 64 mg/kg orally; for inhibition in vivo at 128 mg/kg: 128 mg/kg orally; for inhibition in vivo at 256 mg/kg: 256 mg/kg orally; for inhibition in vivo at 32 mg/kg: 32 mg/kg orally
Method: This activity was measured by Siegmund's test in mice and Randall and Selitto's test in the rat.
Groups of six mice received the compound under test orally 1 hour before intraperitoneal injection of 0.2 ml of an 0.02% of solution of phenylbenzoquinone. The number of painful reactiors from the fifth to the tenth minute after the injection of phenylbenzoquinone was counted.

[3] = Analgesic activity: Randall and Selitto's test (beer yeast paw, pain threshold); type: in vivo, rat
Method: This activity was measured by Siegmund's test in mice and Randall and Selitto's test in the rat. Groups of ten male rats each weight 120 to 140 g received by subcutaneous plantar injection 0.05 ml of a 5% aqueous suspension of beer yeast. 2 Hours after this treatment they received the compound under test orally and 1 hour after administration of this compound the paw which had been injected and the contralateral paw were subjected to increasing pressure. The appearance of the pain threshold was noted.

Escape test = type: in vivo; details: Mus musculus, ip, 0.5 h, read-out: Percentage inhibition (number of attempts to escape); for change in vivo at 16 mg/kg: 16 mg/kg intraperitoneally; for change in vivo at 32 mg/kg: 32 mg/kg intraperitoneally; for change in vivo at 64 mg/kg: 64 mg/kg intraperitoneally; for change in vivo at 128 mg/kg: 128 mg/kg intraperitoneally; for change in vivo at 256 mg/kg: 256 mg/kg intraperitoneally
Method: Groups of 8 mice were placed in sub groups of 4 in an enclosure from which they could escape by an inclined plane. The number of attempts to escape during 5 minutes were counted half an hour after intraperitoneal administration of the compound under test.

[4] = Antagonism of convulsions produced by cardiazole; type: in vivo; details: Mus musculus, ip, read-out: Percentage inhibition of tonic convulsions; for inhibition in vivo at 8 mg/kg: 8 mg/kg intraperitoneally; for inhibition in vivo at 16 mg/kg: 16 mg/kg intraperitoneally; for inhibition in vivo at 32 mg/kg: 32 mg/kg intraperitoneally; for inhibition in vivo at 64 mg/kg: 64 mg/kg intraperitoneally; for inhibition in vivo at 128 mg/kg: 128 mg/kg intraperitoneally; for inhibition in vivo at 256 mg/kg: 256 mg/kg intraperitoneally
Method: Groups of 6 mice received the compound under test 30 minutes before introperitoneal injection of 160 mg/kg of cardiazole. The action of the compound under test on the tonic convulsion phase was observed.

Solubility in water = type: physicochemical; details: monohydrochloride
[5] = Potentiation of stereotypes by amphetamine; type: in vivo, rat; details: 5 mg/kg dexamphetamine sulphate
Method: The compound under test was administered to groups of 5 rats intraperitoneally. Thirty minutes afterwards, 5 mg/kg of dexamphetamine sulphate was injected intraperitoneally. The duration of the phenomenon is counted at regular intervals from 0 to 4 and the counts are added up.

Row | solubility in water (Solubility in water) | Compound | inhibition in vivo at 128 mg/kg [1] | inhibition in vivo at 256 mg/kg [1] | inhibition in vivo at 512 mg/kg [1] | inhibition in vivo at 64 mg/kg [2] | inhibition in vivo at 128 mg/kg [2] | inhibition in vivo at 256 mg/kg [2] | change in vivo at 16 mg/kg (Escape test) | change in vivo at 32 mg/kg (Escape test) | change in vivo at 64 mg/kg (Escape test) | change in vivo at 128 mg/kg (Escape test) | inhibition in vivo at 8 mg/kg [4] | inhibition in vivo at 16 mg/kg [4] | inhibition in vivo at 32 mg/kg [4] | inhibition in vivo at 64 mg/kg [4] | inhibition in vivo at 128 mg/kg [4] | inhibition in vivo at 32 mg/kg [2] | change in vivo at 256 mg/kg (Escape test) | inhibition in vivo at 256 mg/kg [4] | Sum of the counts (stereotypes) ([5]; 64 mg/kg intraperitoneally) | also measured
1 | soluble in water | Cc1cccc(Nc2ncccc2C(=O)OCC(C)(C)N(C)C)c1C [Example 3, 2-Dimethylamino-2-methylpropyl nixylate] | 0% | 72% | 67% | 31% | 49% | 75% | -15% | -30% | -67% | -95% | 0% | 5% | 16% | 83% | 100% |  |  |  |  | percentage increase of pain threshold ([3]; with yeast, 16 mg/kg orally): 33%; percentage increase of pain threshold ([3]; with yeast, 32 mg/kg orally): 42%; percentage increase of pain threshold ([3]; with yeast, 64 mg/kg orally): 66%; percentage increase of pain threshold ([3]; with yeast, 128 mg/kg orally): 41%; percentage increase of pain threshold ([3]; without yeast, 32 mg/kg orally): 0%; percentage increase of pain threshold ([3]; without yeast, 64 mg/kg orally): 2%; percentage increase of pain threshold ([3]; without yeast, 128 mg/kg orally): 11%; percentage increase of pain threshold ([3]; without yeast, 256 mg/kg orally): 0%; change in vivo at 8 mg/kg (Escape test; 8 mg/kg intraperitoneally): -16%
2 |  | O=C(OCCN1CCOCC1)c1cccnc1Nc1ccccc1 [Example 5, β-Morpholino ethyl 2-anilino nicotinate] | 0% | 17% | 71% | 38% | 57% | 83% | -12% | -5% | -23% | -20% | 16% | 33% | 33% | 16% | 33% | 16% | -78% | 100% | 22 | inhibition in vivo at 4 mg/kg ([4]; 4 mg/kg intraperitoneally): 0%; Sum of the counts (stereotypes) ([5]; 16 mg/kg intraperitoneally): 14; Sum of the counts (stereotypes) ([5]; 256 mg/kg intraperitoneally): 44
3 |  | Cc1ccc(Cl)cc1Nc1ncccc1C(=O)OCCN1CCOCC1 [Example 8, β-Morpholino ethyl 2-(2-methyl-5-chloroanilino) nicotinate] |  | 36% |  |  |  | 18% |  | -25% | -52% | -62% |  |  | 0% | 17% | 33% |  | -83% | 67% | 87 | inhibition in vivo at 64 mg/kg [1]: 0%; inhibition in vivo at 512 mg/kg ([2]; 512 mg/kg orally): 74%; inhibition in vivo at 512 mg/kg ([4]; 512 mg/kg intraperitoneally): 100%; Sum of the counts (stereotypes) ([5]; 32 mg/kg intraperitoneally): 89; Sum of the counts (stereotypes) ([5]; 128 mg/kg intraperitoneally): 161; Sum of the counts (stereotypes) ([5]; 256 mg/kg intraperitoneally): 195
4 | soluble in water | Cc1cccc(Cl)c1Nc1ncccc1C(=O)OCCN1CCOCC1 [Example 9, β-Morpholino ethyl 2-(2-chloro-6-methylanilino) nicotinate] |  | 39% |  | 8% | 37% | 66% | -19% | -22% | -59% | -100% |  |  |  | 0% | 100% | 8% |  |  |  | inhibition in vivo at 16 mg/kg ([1]; 16 mg/kg orally): 7%; inhibition in vivo at 64 mg/kg [1]: 20%; inhibition in vivo at 16 mg/kg ([2]; 16 mg/kg orally): 14%
